Test results taken from the Deep4Chem optical property database.
Blank lines part the entries; values can stand above or below the compound they belong to.

Assay: solvent given as SMILES

Compound: CC1(C)c2cc(C#N)ccc2-c2ccc(N3c4ccccc4Oc4ccccc43)cc21
- absorption maximum (in C1CCCCC1): 395 nm
- absorption maximum (in C1CCOC1): 380 nm
- absorption maximum (in CC#N): 375 nm
- absorption maximum (in Cc1ccccc1): 390 nm
- absorption maximum (in ClC(Cl)Cl): 389 nm

- absorption maximum (in ClCCl): 312 nm
Compound: C(=C\c1cc(/C=C/c2ccccc2)nc(/C=C/c2ccccc2)n1)/c1ccccc1

- absorption maximum (in C1COCCO1): 416 nm
Compound: O=C1OC(c2ccccc2)=C/C1=C\c1ccc([N+](=O)[O-])cc1

- absorption maximum (in CC#N): 394 nm
Compound: CCOC(=O)c1c2c3c(ccc([N+](=O)[O-])c3c3cc4ccccc4cc13)N(C)C2=O

- absorption maximum (in C1COCCO1): 456 nm
Compound: CCC12C(=C3C(=C4c5ccc(-c6ccc(C(C)=O)cc6)cc5S(=O)(=O)C41CC)C(F)(F)C(F)(F)C3(F)F)c1ccc(-c3ccc(C(C)=O)cc3)cc1S2(=O)=O (stereo unspecified)

Compound: CC1(C)c2ccccc2N(c2ccc3c(c2)c2cc(N4c5ccccc5C(C)(C)c5ccccc54)ccc2c2nc(C#N)c(C#N)nc32)c2ccccc21
- absorption maximum (in Cc1ccccc1): 464 nm

- absorption maximum (in ClCCl): 405 nm
Compound: c1ccc(B2Nc3cc4c(cc3-c3sccc32)NB(c2ccccc2)c2ccsc2-4)cc1

- absorption maximum (in ClCCl): 376 nm
Compound: CCOC(=O)/N=c1/oc2cc(OC)cc(OC)c2cc1C#N

- absorption maximum (in ClCCl): 402 nm
Compound: CCCCCCN1C(=O)c2cccc3c(-c4ccc(-c5cc(-c6ccc(Cl)cc6)n(-c6ccccc6)n5)s4)ccc(c23)C1=O

- absorption maximum (in ClCCl): 377 nm
Compound: CC(C)(C)c1ccc(-n2c(-c3ccc(N(c4ccc(-c5ccc(N(c6ccc(-c7nc8c9ccccc9c9ccccc9c8n7-c7ccc(C(C)(C)C)cc7)cc6)c6ccc(-c7nc8c9ccccc9c9ccccc9c8n7-c7ccc(C(C)(C)C)cc7)cc6)cc5)cc4)c4ccc(-c5nc6c7ccccc7c7ccccc7c6n5-c5ccc(C(C)(C)C)cc5)cc4)cc3)nc3c4ccccc4c4ccccc4c32)cc1

- absorption maximum (in ClCCl): 430 nm
Compound: C(=C\c1nc(/C=C/c2ccc(N(c3ccccc3)c3ccccc3)cc2)cc(/C=C/c2ccc(N(c3ccccc3)c3ccccc3)cc2)n1)/c1ccccc1

- absorption maximum (in C1COCCO1): 438 nm
Compound: COC(=O)c1ccc(/C=C2\C=C(c3ccc(C#N)cc3)N(CC(C)C)C2=O)cc1

Compound: O=CN1N=C(c2ccc(Br)cc2)C[C@@H]1c1ccccc1
- absorption maximum (in C1CCCCC1): 305 nm
- absorption maximum (in C1COCCO1): 303 nm
- absorption maximum (in CC#N): 298 nm
- absorption maximum (in CCO): 297 nm
- absorption maximum (in CCOC(C)=O): 301 nm
- absorption maximum (in CO): 298 nm
- absorption maximum (in CS(C)=O): 302 nm
- absorption maximum (in Cc1ccccc1): 306 nm
- absorption maximum (in ClC(Cl)(Cl)Cl): 306 nm

- absorption maximum (in CC#N): 360 nm
- absorption maximum (in CCCCCCCCCCCCCCCC): 351 nm
- absorption maximum (in CO): 368 nm
- absorption maximum (in ClC(Cl)Cl): 359 nm
- absorption maximum (in c1ccccc1): 356 nm
Compound: CC(C)(C)C1Nc2c(Br)cc(Br)cc2C(=O)N1Cc1ccccc1 (stereo unspecified)

- absorption maximum (in ClCCl): 323 nm
Compound: CCOC(=O)c1c(-c2cc3ccccc3oc2=O)nn(-c2ccccc2)c1C(=O)OCC

- absorption maximum (in ClC(Cl)Cl): 638 nm
Compound: CCCCCCCCOc1ccc(-c2c3c4n(c(-c5ccc(OCCCCCCCC)cc5)c3c3n2[B-](F)(F)[n+]2ccccc2N=3)[B-](F)(F)[n+]2ccccc2N=4)cc1

- absorption maximum (in ClC(Cl)Cl): 342 nm
Compound: COc1cc(OC)c2cc(-c3ccccc3CC#N)c(=O)oc2c1

- absorption maximum (in ClC(Cl)Cl): 359 nm
Compound: c1ccc(-n2c(-c3ccc(-c4ccc5c(c4)C4(c6ccccc6-c6ccccc64)c4cc(-c6ccc(-c7nc8ccccc8n7-c7ccccc7)cc6)c6ccccc6c4-5)cc3)nc3ccccc32)cc1

Compound: Cc1ccc(C2=C3C=CC(C#Cc4ccccc4)=[N+]3[B-](F)(F)n3c(Cl)ccc32)cc1
- absorption maximum (in C1CCCCC1): 564 nm
- absorption maximum (in C1CCOC1): 560 nm
- absorption maximum (in C1COCCO1): 562 nm
- absorption maximum (in CCOC(C)=O): 558 nm
- absorption maximum (in CO): 556 nm
- absorption maximum (in Cc1ccccc1): 566 nm
- absorption maximum (in ClC(Cl)Cl): 564 nm

- absorption maximum (in CN(C)C=O): 313 nm
Compound: Cc1nc2cccc(-c3nc4ccccc4[nH]3)c2c(=O)[nH]1

- absorption maximum (in C1CCCCC1): 309 nm
Compound: C=Cc1ccc(OC)c(OC)c1

- absorption maximum (in CC#N): 280 nm
- absorption maximum (in CCOC(C)=O): 280 nm
- absorption maximum (in CO): 280 nm
Compound: COC(=O)C[C@H](Cc1c[nH]c2ccccc12)NC(=O)[C@H](CC(=O)N[C@@H](CC1=CCc2ccccc21)C(=O)OC)NC(=O)[C@H](Cc1c[nH]c2ccccc12)NC(=O)OC(C)(C)C
